Reference: publication PMC10619693, “Structural identification of catalytic His158 of PtMAC2p from Pseudozyma tsukubaensis, an acyltransferase involved in mannosylerythritol lipids formation” (Frontiers in Bioengineering and Biotechnology, 2023)

Target: T1, PtMAC2p (Pseudozyma tsukubaensis, UniProt A0A2Z6ERP5)
T1 construct: gene PtMAC2
Experiment: DTNB (Ellman) assay of CoA release, absorbance at […] nm
Format: biochemical
Details: 0.1 mM lauroyl-CoA; co-substrate 1 mM mono-acylated MEL-D; 1 mM DTNB; 50 mM sodium phosphate pH 7.2, 25 °C

T1 sequence (A0A2Z6ERP5 1-549): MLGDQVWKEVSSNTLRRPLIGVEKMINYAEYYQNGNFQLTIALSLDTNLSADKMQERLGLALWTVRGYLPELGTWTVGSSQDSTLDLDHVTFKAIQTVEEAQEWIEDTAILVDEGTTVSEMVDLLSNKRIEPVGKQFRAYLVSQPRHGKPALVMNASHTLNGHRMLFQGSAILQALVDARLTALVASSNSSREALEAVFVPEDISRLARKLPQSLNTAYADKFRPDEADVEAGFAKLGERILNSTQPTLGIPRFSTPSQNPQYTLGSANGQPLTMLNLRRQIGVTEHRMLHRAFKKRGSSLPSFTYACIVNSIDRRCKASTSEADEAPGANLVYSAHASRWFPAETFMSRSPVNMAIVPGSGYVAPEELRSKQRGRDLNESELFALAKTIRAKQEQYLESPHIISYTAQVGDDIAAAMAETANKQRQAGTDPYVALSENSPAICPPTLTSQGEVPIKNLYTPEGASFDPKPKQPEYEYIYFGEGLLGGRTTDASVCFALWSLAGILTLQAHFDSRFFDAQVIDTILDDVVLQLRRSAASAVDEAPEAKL

With `CCCCCCCCCCCC(=O)SCCNC(=O)CCNC(=O)[C@H](O)C(C)(C)COP(=O)(O)OP(=O)(O)OC[C@H]1O[C@@H](n2cnc3c(N)ncnc32)[C@H](O)[C@@H]1OP(=O)(O)O` [lauroyl-CoA] the “DTNB (Ellman) assay of CoA release, absorbance at 412 nm” value was “Purified PtMAC2p catalyzes the transfer of a fatty acid of lauroyl-CoA (C12)”.
